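At the GI50, growth is halved. TGI: concentration producing complete growth inhibition.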
Legend:
Assay in all cases: inhibition of tumour cell growth, NCI panel, 384-well format
[1] = test system: NCI/ADR-RES ovarian
[2] = test system: SK-MEL-5 melanoma
[3] = test system: M14 melanoma
[4] = test system: SNB-19 CNS
[5] = test system: MALME-3M melanoma
[6] = test system: NCI-H522 lung
[7] = test system: BT-549 breast
[8] = test system: HT29 colon
[9] = test system: T-47D breast
[10] = test system: DU-145 prostate
[11] = test system: OVCAR-3 ovarian
[12] = test system: UACC-257 melanoma
[13] = test system: ACHN renal
[14] = test system: HCC-2998 colon
[15] = test system: HCT-15 colon
[16] = test system: IGROV1 ovarian
[17] = test system: HL-60(TB) leukemia
[18] = test system: SF-295 CNS
[19] = test system: CAKI-1 renal
[20] = test system: MDA-MB-468 breast
[21] = test system: OVCAR-5 ovarian
[22] = test system: OVCAR-4 ovarian
[23] = test system: NCI-H322M lung
[24] = test system: SF-268 CNS
[25] = test system: HS 578T breast
[26] = test system: SR leukemia
[27] = test system: SNB-75 CNS
[28] = test system: SK-MEL-28 melanoma
[29] = test system: RPMI-8226 leukemia
[30] = test system: EKVX NSCLC
[31] = test system: MOLT-4 leukemia
[32] = test system: NCI-H226 lung
[33] = test system: SF-539 CNS
[34] = test system: U251 glioblastoma
[35] = test system: MCF7 breast
[36] = test system: HOP-62 NSCLC
[37] = test system: LOX IMVI melanoma
[38] = test system: SK-OV-3 ovarian
[39] = test system: TK-10 renal
[40] = test system: SN12C renal
[41] = test system: A498 renal
[42] = test system: KM12 colon
[43] = test system: HCT-116 colon
[44] = test system: NCI-H460 NSCLC
[45] = test system: OVCAR-8 ovarian
[46] = test system: MDA-MB-435 melanoma
[47] = test system: MDA-MB-231 breast
[48] = test system: A549 NSCLC
[49] = test system: NCI-H23 lung
[50] = test system: RXF 393 renal
[51] = test system: UACC-62 melanoma
[52] = test system: COLO 205 colon
[53] = test system: PC-3 prostate
[54] = test system: HOP-92 NSCLC

SMILES: NC(=O)c1cnc(N[C@@H]2CCCC[C@@H]2N)nc1Nc1cccc(-n2nccn2)c1
- GI50 [1]: 9.3 µM
- TGI [1]: 21.5 µM
- GI50 [2]: 145 nM
- TGI [2]: 1130 nM
- GI50 [3]: 714 nM
- TGI [3]: 2030 nM
- GI50 [4]: 1310 nM
- TGI [4]: 4 µM
- GI50 [5]: 1230 nM
- TGI [5]: 2490 nM
- GI50 [6]: 274 nM
- TGI [6]: 1590 nM
- GI50 [7]: 848 nM
- TGI [7]: 2110 nM
- GI50 [8]: 502 nM
- TGI [8]: 1980 nM
- GI50 [9]: 1410 nM
- TGI [9]: 2780 nM
- GI50 [10]: 1250 nM
- TGI [10]: 2980 nM
- GI50 [11]: 1020 nM
- TGI [11]: 2300 nM
- GI50 [12]: 1100 nM
- TGI [12]: 2300 nM
- GI50 [13]: 1280 nM
- TGI [13]: 2570 nM
- GI50 [14]: 415 nM
- TGI [14]: 1850 nM
- GI50 [15]: 1230 nM
- TGI [15]: 2610 nM
- GI50 [16]: 631 nM
- TGI [16]: 2290 nM
- GI50 [17]: 12.6 nM
- TGI [17]: 153 nM
- GI50 [18]: 1650 nM
- TGI [18]: 3.06 µM
- GI50 [19]: 473 nM
- TGI [19]: 1830 nM
- GI50 [20]: 1440 nM
- TGI [20]: 2810 nM
- GI50 [21]: 769 nM
- TGI [21]: 2340 nM
- GI50 [22]: 236 nM
- TGI [22]: 1980 nM
- GI50 [23]: 1130 nM
- TGI [23]: 2430 nM
- GI50 [24]: 1560 nM
- TGI [24]: 3.11 µM
- GI50 [25]: 1080 nM
- TGI [25]: 2320 nM
- GI50 [26]: 183 nM
- TGI [26]: 1470 nM
- GI50 [27]: 1410 nM
- TGI [27]: 3.23 µM
- GI50 [28]: 1380 nM
- TGI [28]: 2690 nM
- GI50 [29]: 227 nM
- TGI [29]: 1350 nM
- GI50 [30]: 1420 nM
- TGI [30]: 2920 nM
- GI50 [31]: 1140 nM
- TGI [31]: 2370 nM
- GI50 [32]: 1210 nM
- TGI [32]: 2510 nM
- GI50 [33]: 1290 nM
- TGI [33]: 2590 nM
- GI50 [34]: 1390 nM
- TGI [34]: 2750 nM
- GI50 [35]: 225 nM
- TGI [35]: 1770 nM
- GI50 [36]: 462 nM
- TGI [36]: 2060 nM
- GI50 [37]: 372 nM
- TGI [37]: 1450 nM
- GI50 [38]: 623 nM
- TGI [38]: 2820 nM
- GI50 [39]: 438 nM
- TGI [39]: 1840 nM
- GI50 [40]: 178 nM
- TGI [40]: 1630 nM
- GI50 [41]: 1040 nM
- TGI [41]: 2260 nM
- GI50 [42]: 410 nM
- TGI [42]: 1690 nM
- GI50 [43]: 1030 nM
- TGI [43]: 2320 nM
- GI50 [44]: 1410 nM
- TGI [44]: 2770 nM
- GI50 [45]: 1140 nM
- TGI [45]: 2410 nM
- GI50 [46]: 571 nM
- TGI [46]: 1920 nM
- GI50 [47]: 1150 nM
- TGI [47]: 3.77 µM
- GI50 [48]: 1310 nM
- TGI [48]: 2700 nM
- GI50 [49]: 801 nM
- TGI [49]: 2150 nM
- GI50 [50]: 1510 nM
- TGI [50]: 2910 nM
- GI50 [51]: 305 nM
- TGI [51]: 1810 nM
- GI50 [52]: 761 nM
- TGI [52]: 2060 nM
- GI50 [53]: 617 nM
- TGI [53]: 2430 nM
- GI50 [54]: 1270 nM
- TGI [54]: 2980 nM
